How the values were obtained:
[1] = Clearance in rat at 1 mg/kg, iv relative to hepatic blood flow; type: ADME, organism-based, Liver; details: in vivo
[2] = Oral bioavailability in rat at 250 mg/kg; type: ADME, organism-based; details: in vivo

clearance [1]: 79 mL/min/kg | bioavailability [2]: < 10%
SMILES: O=C1c2cc(-c3ccnc(NC4CCOCC4)n3)cn2CCCN1[C@H](CO)c1ccccc1
